# Active and inactive are the calls of the source.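 Rule for the calls: active = maximal inhibition of USP17 at or above 30% in the confirmation dose-response, a value not among the printed readouts; inactive = the rest.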
# Biological target: Ubiquitin carboxyl-terminal hydrolase 17-like protein 5 (Homo sapiens) (UniProt A8MUK1)
# Test: ubiquitin-specific protease 17 inhibitors, concentration series, biochemical, verification of primary actives (AID 1645864)
# Conditions: purified USP17, ubiquitin-rhodamine cleavage fluorescence, 3 h
# Ubiquitin carboxyl-terminal hydrolase 17-like protein 5 (Homo sapiens), sequence (A8MUK1 whole entry, looked up): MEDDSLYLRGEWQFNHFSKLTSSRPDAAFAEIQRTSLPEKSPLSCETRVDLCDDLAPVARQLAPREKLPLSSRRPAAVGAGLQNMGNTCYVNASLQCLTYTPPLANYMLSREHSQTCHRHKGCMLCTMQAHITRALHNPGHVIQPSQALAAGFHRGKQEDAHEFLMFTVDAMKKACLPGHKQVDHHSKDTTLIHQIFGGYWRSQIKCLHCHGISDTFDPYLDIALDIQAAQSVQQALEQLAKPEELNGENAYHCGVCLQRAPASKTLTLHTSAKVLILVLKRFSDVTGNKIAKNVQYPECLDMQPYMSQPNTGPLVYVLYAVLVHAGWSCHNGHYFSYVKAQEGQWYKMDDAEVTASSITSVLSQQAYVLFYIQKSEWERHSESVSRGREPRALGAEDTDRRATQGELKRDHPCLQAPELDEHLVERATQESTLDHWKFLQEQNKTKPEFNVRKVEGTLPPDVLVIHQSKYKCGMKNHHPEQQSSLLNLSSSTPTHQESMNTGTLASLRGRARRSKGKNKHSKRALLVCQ
row,Structure (SMILES),IC50
1,COc1ccc(/C=C/c2ccnc3nc(-n4cccc4)nn23)cc1,> 50 µM (inactive)
2,CC1=C[C@@H](C)CC[C@H]2O[C@@H](C3=C(O)C(=O)C(C)=C4O[C@](O)(C=C43)[C@@H](C)C[C@H](C)C1)[C@H](C)[C@@H](O)[C@H]2C,16.1 µM
3,Cc1cc(C)c2sc(N(CCCn3ccnc3)C(=O)Cc3ccccc3)nc2c1,21.7 µM
4,CCCCc1nc2sc3c(SCC(=O)Nc4cccc(C)c4)ncnc3c2c2c1CCC2,14 µM
5,CC[C@@]1(O)C[C@H](OC2CC(N(C)C)C(OC3CC(O)C(OC4CCC(=O)C(C)O4)C(C)O3)C(C)O2)c2c(cc3c(c2O)C(=O)c2c(O)ccc(O)c2C3=O)[C@H]1C(=O)OC (some centres not stated),2.51 µM
6,Cc1cnc(CN2CCCC(c3ccc4cn[nH]c4n3)C2)cn1 (configuration not stated),> 50 µM (inactive)
7,COc1ccc(OC)c(NC(=O)c2ccc(-n3nnnc3SC)cc2)c1,29.9 µM
8,CCCc1c(C(=O)O)c(O[C@H]2O[C@H](C)[C@@H](OC)[C@H](OC)[C@@H]2OC)cc2cc3c(c(O)c12)C(=O)c1c(O)cc(O[C@@H]2O[C@@H](C)[C@H](O[C@H]4O[C@H](C)[C@@H](OC)[C@H](OC)[C@@H]4O)[C@@H](OC)[C@H]2O)cc1C3=O,> 50 µM (inactive)
9,N#Cc1ccc(Cc2ncc(C(F)(F)F)cc2Cl)s1,> 50 µM (inactive)
10,COc1ccccc1-c1nc(Cn2nnc(C(=O)Nc3cc(C)cc(C)c3)c2N)c(C)o1,22.3 µM
11,O=c1ccc(-c2noc(-c3ccc4cc[nH]c4c3)n2)c[nH]1,> 50 µM (inactive)
12,CC1=C[C@H]2N(c3ccc(C)cc31)[C@H](C(=O)c1cccs1)[C@@H](C(=O)c1ccc(F)cc1)[C@]21C(=O)Nc2ccccc21,> 50 µM (inactive)
13,O=C(Nc1cccc(F)c1)c1ncoc1-c1ccco1,> 50 µM (inactive)
14,CCOc1ccc(NC(=O)Cn2c(=O)n(CCCCCC(=O)NCc3ccc(F)cc3)c(=O)c3sccc32)cc1,2.16 µM
15,O=C(Nc1cccc(Cl)c1)N1CCC(c2cc(-c3ccco3)n[nH]2)CC1,3.52 µM
16,CCn1ccc2c(cc(C(=O)Nc3cccc(OC)c3)n2C)c1=O,> 50 µM (inactive)
17,COc1cccc(NC(=O)c2ccc(F)cc2Cl)c1,> 50 µM (inactive)
18,Cc1csc2ncc(C(=O)N3CCN(c4ccccc4F)CC3)c(=O)n12,> 50 µM (inactive)
19,CNC(=O)C1CN(C(=O)c2ccc(OC)cc2)CC12CCCC2 (configuration not stated),> 50 µM (inactive)
20,O=S(=O)(c1cccc(F)c1)N1CCN(c2nnnn2-c2ccccc2)CC1,40.3 µM
21,Cc1ccc2cc(CCNC(=O)c3cccc(Br)c3)c(=O)[nH]c2c1,38.9 µM
22,CC1Oc2cc3c(-c4c(O)cc(O)c5c(O)c6c(cc45)OC(C)C(C)C6=O)c(O)cc(O)c3c(O)c2C(=O)C1C (configuration not stated),1.25 µM

row,Structure (SMILES),IC50
1,COc1cc(C(=O)Nc2ccc(-c3csc(C)n3)cc2)cc(OC)c1OC,> 50 µM (inactive)
2,CC(=O)c1cccc(NC(=O)c2ccc(CN(c3ccc(C)c(C)c3)S(C)(=O)=O)cc2)c1,> 50 µM (inactive)
3,O=C(OCCCN1C(=O)c2cccc3c(N4CCCCC4)ccc(c23)C1=O)c1ccccn1,> 50 µM (inactive)
4,COc1cc(Cl)ccc1C(=O)Nc1cccc(-n2cnnn2)c1C,4.48 µM
5,O=C1C[C@@H]2O[C@H](CNC(=O)[C@@H]3CN(CCN3C(=O)C3CCOCC3)C(=O)[C@@H]3C[C@@H](CN3Cc3ccc(F)c(F)c3)N1)[C@@H](O)[C@H]2O,> 50 µM (inactive)
6,COc1ccc2cc1Oc1cc(ccc1OC)C(O)C13SSC4(C(=O)N1C)C(O)C1=COC=CC(OC2=O)C1N4C3=O (configuration not stated),> 50 µM (inactive)
7,COc1cccc(/C=C/c2nc(C#N)c(N3CCN(C(=O)c4cccs4)CC3)o2)c1,> 50 µM (inactive)
8,Cc1ccc(CNC(=O)CCCn2c(=O)c3sccc3n(CC(=O)Nc3cc(Cl)ccc3C)c2=O)cc1,2.83 µM
9,O=c1ncn(Cc2ccc3c(c2)OCO3)cc1-c1ncc(C(F)(F)F)cc1Cl,43.9 µM
10,O=C(COc1cccc(-n2cnnn2)c1)Nc1ccc2c(c1)OCCO2,> 50 µM (inactive)
11,Cc1ccc(O)c(-c2cc(C(=O)Nc3ccccc3Cl)[nH]n2)c1,8.32 µM
12,Cc1ccc(Cn2nnc(C(=O)NCc3ccco3)c2-n2cccc2)cc1,42.4 µM
13,Cc1nc2cc(C(=O)NCCC3=CCCCC3)ccc2n1-c1cccc(F)c1,> 50 µM (inactive)
14,CC(=O)Nc1ccc(-n2cnc(C(=O)NCc3ccc(C)cc3)c2)nc1,27.1 µM
15,O=C(CN1C(=O)NC2(CCCCC2)C1=O)Nc1ccc([N+](=O)[O-])cc1,32.8 µM
16,Cc1ccc(-n2nnc(C(=O)NC3CCCCC3)c2N)cc1,22.1 µM
17,Cc1c(C(=O)NCc2cccc(Br)c2)oc2c1-c1[nH]ncc1CC2,29.1 µM
18,O=C(Nc1cccc(OC(=O)c2ccc(Cl)cc2)c1)c1ccc(Cl)cc1,16.8 µM
19,CCOC(=O)c1ccc(NC(=O)C[n+]2cc(-c3ccc(Cl)cc3)n3c2CCC3)cc1,> 50 µM (inactive)
20,CCN(CC)c1cc(C)c2cc(NC(=O)c3ccncc3)ccc2n1,> 50 µM (inactive)
21,CCc1nnc(NC(=O)c2nnn(-c3ccccc3Cl)c2C)s1,> 50 µM (inactive)

# More lines, now with the values ahead:
row,IC50,Structure (SMILES)
1,> 50 µM (inactive),NC(=O)Cn1c(=O)n(Cc2ccc(C(=O)NC3CCCC3)cc2)c(=O)c2ccccc21
2,> 50 µM (inactive),O=C(NCc1ccc(F)cc1)N1CCC2(C1)Nc1cccnc1NC2=NCc1ccccc1 (configuration not stated)
3,> 50 µM (inactive),CCn1ccc2c(cc(C(=O)Nc3ccccc3F)n2C)c1=O
4,> 50 µM (inactive),COc1ccc(NC(=O)CSc2nnc(Cc3cccc4ccccc34)n2C)cc1
5,> 50 µM (inactive),CC(=O)c1cccc(NC(=O)c2ccc(-c3csc(C)n3)cc2)c1
6,28.1 µM,COc1ccc(NS(=O)(=O)c2cc(NC(=O)CCc3nc4ccccc4s3)ccc2C)cc1
7,5.78 µM,O=C(Nc1ccccc1Sc1ncc(-c2ccc(Cl)cc2)cn1)c1ccco1
8,> 50 µM (inactive),O=C(Cc1cccc2ccccc12)Nc1nc2ccc(F)cc2s1
9,> 50 µM (inactive),CC(CCc1ccccc1)NC(=O)C(=O)c1cn(CC(=O)N2CCOCC2)c2ccccc12 (configuration not stated)
10,20.5 µM,CSc1ncc(C(=O)NC(C)c2ccccc2)c(-c2ccccc2)n1 (configuration not stated)
11,12.2 µM,O=C(CC1C(=O)Nc2nc(-c3ccccc3)nn21)Nc1cccc2ccccc12 (configuration not stated)
12,1.91 µM,Cc1cc2nc(Oc3cccc(Cl)c3)c3ccccc3n2n1
13,8.23 µM,Cn1c(-c2nnc(SCC(=O)NCCc3ccccc3)o2)cc2ccccc21
14,> 50 µM (inactive),CCC(=O)Nc1cccnc1-c1ccc(C(=O)Nc2cccc(OC)c2)cc1
15,37.4 µM,COc1cccc(NC(=O)c2ccc3noc(-c4ccc(Cl)cc4)c3c2)c1
16,19.2 µM,O=C(CNC(=O)c1cccc(F)c1)Nc1nc2ccccc2[nH]1
17,3.04 µM,COc1ccc(N(CC(=O)NC2CCCCC2)C(=O)c2ccc(-c3ccccc3)[nH]2)cc1OC
18,32.2 µM,CCCc1nc2c(sc3nc4c(cc32)COC(C)(C)C4)c(=O)n1CC(=O)Nc1ccccc1C
19,> 50 µM (inactive),COc1ccccc1OCC(=O)Nc1ccc2c(c1)CCC(=O)N2Cc1ccccc1
20,> 50 µM (inactive),CN(CCc1ccccc1)c1nccc(N2CCN(C(=O)c3csc(-c4cccnc4)n3)CC2)n1
21,44.1 µM,COc1ccccc1NC(=O)c1nn(-c2cccc(F)c2)c(OC)cc1=O
22,9.53 µM,COc1ccccc1NC(=O)c1cc(-c2ccccn2)nc2ccccc12
23,47 µM,Cc1nn(CC(=O)NCc2ccccc2F)c2ccccc12
24,> 50 µM (inactive),Cc1c(-c2ccccc2)oc2c(C(=O)OCC(=O)Nc3ccccc3F)cccc2c1=O

# Reference: PubChem BioAssay AID1645864 (Buhrlage Lab, Dana-Farber Cancer Institute and Novartis …, 2021)
